Source: US8741934B2, “Inhibitors of ion channels” (Pfizer Limited, priority 2007, dated 2014)

Tests used:
hSCN3A sodium channels = biological target: T1, hSCN3A sodium channels (Homo sapiens, UniProt Q9NY46); assay: hSCN3A electrophysiology, whole-cell patch-clamp or PatchXpress 7000, estimated IC-50 (Table B); type: cell-based; settings: estimated IC-50; hSCN3A cells, whole-cell patch-clamp or PatchXpress 7000; read-out: SCN3A EIC-50
T1 construct: expressed in transfected cells
In short: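 A 20 msec test pulse to 0 mV followed an 8 sec conditioning prepulse at each cell's measured V1/2. Room-temperature (22-24° C) recordings on HEK cells stably expressing the channel, conventional or PatchXpress.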

[1] = type: in vivo, rat; settings: in contrast to compounds I, II and III
Description: The bioanalysis of plasma samples from rats dosed with LC/MS/MS detection of sulfathiazole as measured against an internal standard. Extraction was performed on-line with a turbulent flow chromatography system (HTLC). The transfer from the HTLC to the analytical HPLC is automatic. The mass spectrometer was operated in API ionization mode with an electrospray interface between the analytical HPLC and the mass spectrometer. Multiple reaction monitoring (mrm) detection was used for each analyte on a triple quadrupole mass spectrometer.
2. Materials • HPLC grade reagents were used such as: • Water (Hydro Services Picosystem water filtration) • Methanol (Fisher Ultima) • Ammonium formate (Sigma), and • Formic acid (Sigma) • Rat plasma • sulfathiazole • internal standard B. Instrument Conditions • Mass spectrometer: • Positive ion, mrm detection at • m/z 256 to m/z 108 for ICA-000024 • m/z 342 to m/z 218 for ICA-18756 (internal standard) • 100 ms Dwell time • Cone voltage, capillary voltage and collision energy were optimized for each compound • Source Temperature: 125 C, Desolvation temperature: 325 C • Cone gas at 73 L/hr, and Desolvation gas at 740 L/hr C. Chromatography Conditions
1. Mobile Phases: • A: 98% water:2% methanol with • 4 mM ammonium formate, 0.1% formic acid • B: 98% methanol:2% water with • 4 mM ammonium formate, 0.1% formic acid
2. HTLC Turbulent Flow Quaternary Pump • Column: Cohesive Cyclone Turbo-Flow • Timetable:
3. Analytical Binary Pump • Column: Phenomenex Synergi Hydro-RP 4u 50 mm×2.1 mm • Timetable:
4. Injection Volume • 20 μL D. Preparation of Standards and Samples
Plasma standards and samples were prepared for injection according to the standard operating procedure, HTLC Plasma Analysis by LC/MS/MS.

Nav1.2 = Nav1.2 (Homo sapiens, UniProt Q99250); settings: read-out: TTX IC-50; cited from earlier work
Nav1.6 = Nav1.6 (Homo sapiens, UniProt Q9UQD0); settings: read-out: TTX IC-50; cited from earlier work
Nav1.6, sequence (Q9UQD0 whole entry, looked up): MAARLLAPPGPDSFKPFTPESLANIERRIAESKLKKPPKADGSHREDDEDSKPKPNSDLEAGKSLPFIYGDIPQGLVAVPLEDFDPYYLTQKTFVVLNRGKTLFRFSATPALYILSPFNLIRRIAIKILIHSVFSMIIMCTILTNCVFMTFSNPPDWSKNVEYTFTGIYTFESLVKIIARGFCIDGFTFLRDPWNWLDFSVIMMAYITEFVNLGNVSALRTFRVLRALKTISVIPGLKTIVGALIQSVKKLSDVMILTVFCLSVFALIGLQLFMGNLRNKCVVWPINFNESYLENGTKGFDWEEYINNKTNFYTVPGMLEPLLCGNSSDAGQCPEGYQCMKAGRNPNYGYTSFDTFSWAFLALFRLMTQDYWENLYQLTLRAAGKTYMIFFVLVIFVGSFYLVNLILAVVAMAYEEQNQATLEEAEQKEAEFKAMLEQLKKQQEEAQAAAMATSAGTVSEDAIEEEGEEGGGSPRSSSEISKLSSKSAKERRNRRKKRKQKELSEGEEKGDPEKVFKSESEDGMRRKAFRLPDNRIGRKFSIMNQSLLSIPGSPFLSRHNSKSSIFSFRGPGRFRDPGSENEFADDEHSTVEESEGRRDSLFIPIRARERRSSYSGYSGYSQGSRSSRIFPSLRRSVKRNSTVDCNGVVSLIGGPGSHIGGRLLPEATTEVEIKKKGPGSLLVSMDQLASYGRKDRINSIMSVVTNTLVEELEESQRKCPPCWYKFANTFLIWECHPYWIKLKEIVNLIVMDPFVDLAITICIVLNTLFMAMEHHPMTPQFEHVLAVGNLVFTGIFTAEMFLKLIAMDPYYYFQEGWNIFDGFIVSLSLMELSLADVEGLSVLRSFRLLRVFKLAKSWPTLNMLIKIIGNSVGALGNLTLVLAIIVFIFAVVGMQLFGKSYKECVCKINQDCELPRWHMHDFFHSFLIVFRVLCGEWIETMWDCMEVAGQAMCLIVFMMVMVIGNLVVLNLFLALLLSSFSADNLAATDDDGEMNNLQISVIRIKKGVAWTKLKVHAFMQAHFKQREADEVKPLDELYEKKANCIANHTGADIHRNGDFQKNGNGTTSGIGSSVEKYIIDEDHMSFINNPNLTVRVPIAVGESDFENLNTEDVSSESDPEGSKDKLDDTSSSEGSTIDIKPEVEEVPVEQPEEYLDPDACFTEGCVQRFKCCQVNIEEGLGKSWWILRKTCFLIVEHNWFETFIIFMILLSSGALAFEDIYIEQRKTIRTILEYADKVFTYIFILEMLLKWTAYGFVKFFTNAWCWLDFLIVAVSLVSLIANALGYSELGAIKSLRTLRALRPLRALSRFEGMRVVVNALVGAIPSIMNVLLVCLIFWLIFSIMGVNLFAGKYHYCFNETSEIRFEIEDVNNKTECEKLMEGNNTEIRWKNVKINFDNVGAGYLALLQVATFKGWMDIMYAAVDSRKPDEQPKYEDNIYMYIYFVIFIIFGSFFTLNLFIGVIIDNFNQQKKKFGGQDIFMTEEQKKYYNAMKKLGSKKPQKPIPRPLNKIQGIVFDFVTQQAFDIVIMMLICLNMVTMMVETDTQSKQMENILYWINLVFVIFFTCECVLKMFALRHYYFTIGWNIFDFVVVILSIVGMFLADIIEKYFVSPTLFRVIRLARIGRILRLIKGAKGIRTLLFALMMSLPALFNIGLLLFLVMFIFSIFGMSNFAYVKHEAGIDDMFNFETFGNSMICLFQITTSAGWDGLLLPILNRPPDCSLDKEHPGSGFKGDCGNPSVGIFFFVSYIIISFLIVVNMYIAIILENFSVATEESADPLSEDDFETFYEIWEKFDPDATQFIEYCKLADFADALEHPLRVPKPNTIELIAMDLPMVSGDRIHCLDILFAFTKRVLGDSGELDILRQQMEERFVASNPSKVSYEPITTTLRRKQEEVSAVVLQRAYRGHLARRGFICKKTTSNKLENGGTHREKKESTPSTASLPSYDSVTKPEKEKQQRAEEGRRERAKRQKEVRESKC

Nav1.1 = Nav1.1 (Homo sapiens, UniProt P35498); settings: read-out: TTX IC-50; cited from earlier work
Nav1.3 = Nav1.3 (Homo sapiens, UniProt Q9NY46); settings: read-out: TTX IC-50; cited from earlier work
Nav1.3, sequence (Q9NY46 whole entry, looked up): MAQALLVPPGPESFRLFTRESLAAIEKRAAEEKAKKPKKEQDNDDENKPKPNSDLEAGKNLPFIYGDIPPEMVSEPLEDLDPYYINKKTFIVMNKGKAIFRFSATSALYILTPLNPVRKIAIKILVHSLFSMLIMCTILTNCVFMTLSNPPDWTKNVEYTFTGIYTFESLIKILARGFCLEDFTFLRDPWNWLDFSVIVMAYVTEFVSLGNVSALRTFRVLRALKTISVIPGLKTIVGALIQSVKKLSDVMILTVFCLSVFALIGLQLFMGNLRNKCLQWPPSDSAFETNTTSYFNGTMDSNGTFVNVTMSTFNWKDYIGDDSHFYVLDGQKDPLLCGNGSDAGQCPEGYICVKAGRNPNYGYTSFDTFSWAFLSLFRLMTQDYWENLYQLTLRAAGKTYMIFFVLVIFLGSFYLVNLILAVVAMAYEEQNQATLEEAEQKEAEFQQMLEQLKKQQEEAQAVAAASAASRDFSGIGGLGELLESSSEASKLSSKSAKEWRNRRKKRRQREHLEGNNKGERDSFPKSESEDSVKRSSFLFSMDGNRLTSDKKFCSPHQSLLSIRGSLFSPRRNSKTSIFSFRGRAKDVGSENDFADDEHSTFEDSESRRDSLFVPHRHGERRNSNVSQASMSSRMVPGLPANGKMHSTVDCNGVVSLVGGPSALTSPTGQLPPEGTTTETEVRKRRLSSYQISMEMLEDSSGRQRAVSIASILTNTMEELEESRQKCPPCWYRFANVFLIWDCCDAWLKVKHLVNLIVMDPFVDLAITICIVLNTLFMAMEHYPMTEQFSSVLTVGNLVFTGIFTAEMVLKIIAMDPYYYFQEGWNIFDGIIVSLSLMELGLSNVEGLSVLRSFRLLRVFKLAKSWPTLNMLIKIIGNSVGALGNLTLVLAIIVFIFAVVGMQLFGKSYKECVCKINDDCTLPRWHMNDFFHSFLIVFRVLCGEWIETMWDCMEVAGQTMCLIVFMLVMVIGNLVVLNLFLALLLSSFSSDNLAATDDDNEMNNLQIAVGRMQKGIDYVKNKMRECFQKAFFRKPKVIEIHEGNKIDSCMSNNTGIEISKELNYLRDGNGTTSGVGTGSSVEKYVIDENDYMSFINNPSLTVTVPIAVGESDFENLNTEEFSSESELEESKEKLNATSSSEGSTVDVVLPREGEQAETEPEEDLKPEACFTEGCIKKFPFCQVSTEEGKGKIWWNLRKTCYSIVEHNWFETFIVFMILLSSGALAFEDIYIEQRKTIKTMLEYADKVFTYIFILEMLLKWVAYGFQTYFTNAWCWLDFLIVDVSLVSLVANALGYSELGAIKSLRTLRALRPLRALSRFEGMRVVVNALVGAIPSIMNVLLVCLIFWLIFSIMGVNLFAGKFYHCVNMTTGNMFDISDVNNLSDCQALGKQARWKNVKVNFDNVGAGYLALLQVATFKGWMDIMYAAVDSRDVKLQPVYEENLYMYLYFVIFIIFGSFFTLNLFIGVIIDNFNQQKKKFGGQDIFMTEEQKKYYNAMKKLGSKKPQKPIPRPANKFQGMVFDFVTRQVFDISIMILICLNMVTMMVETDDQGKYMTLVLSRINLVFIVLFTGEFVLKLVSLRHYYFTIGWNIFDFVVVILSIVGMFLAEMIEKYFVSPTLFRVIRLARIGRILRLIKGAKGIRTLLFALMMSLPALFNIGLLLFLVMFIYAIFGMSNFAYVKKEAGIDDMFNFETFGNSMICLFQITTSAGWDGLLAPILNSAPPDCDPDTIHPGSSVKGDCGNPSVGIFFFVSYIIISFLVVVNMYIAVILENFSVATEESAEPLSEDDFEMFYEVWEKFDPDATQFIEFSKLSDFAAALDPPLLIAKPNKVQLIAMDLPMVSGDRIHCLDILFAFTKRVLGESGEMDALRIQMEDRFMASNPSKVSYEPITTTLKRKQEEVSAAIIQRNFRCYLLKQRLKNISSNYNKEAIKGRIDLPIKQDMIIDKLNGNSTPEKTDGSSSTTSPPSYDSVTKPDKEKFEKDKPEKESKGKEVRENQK

Nav1.9 = Nav1.9 (Homo sapiens, UniProt Q9UI33); settings: read-out: TTX IC-50; cited from earlier work
Nav1.8 = Nav1.8 (Homo sapiens, UniProt Q9Y5Y9); settings: read-out: TTX IC-50; cited from earlier work

T1 sequence (Q9NY46 whole entry): as the sequence (Q9NY46 whole entry, looked up) above

SMILES: CC(C)(C)CCNC(=O)c1ccc(S(=O)(=O)Nc2nccs2)cc1 [Example 418, N-(3,3-dimethylbutyl)-4-[(1,3-thiazol-2-ylamino)sulfonyl]benzamide]
- IC50 (hSCN3A sodium channels): 2740 nM
- metabolism to the aniline containing sulfathiazole [1]: do not metabolize to form the aniline containing sulfathiazole

SMILES: NC1=N[C@H](O)[C@H]2[C@H]3O[C@]4(O)O[C@@H]([C@@H](O)[C@@]2(N1)[C@@H]4O)[C@]3(O)CO [TTX, tetrodotoxin]
- IC50 (Nav1.2): 10 nM
- IC50 (Nav1.6): 6 nM
- IC50 (Nav1.1): 10 nM
- IC50 (Nav1.3): 15 nM
- IC50 (Nav1.9): 1000 nM
- IC50 (Nav1.8): 50000 nM

SMILES: O=C(NCc1ccc(Cl)cc1)c1ccc(S(=O)(=O)Nc2nccs2)cc1 [Example 100, N-(4-chlorobenzyl)-4-[(1,3-thiazol-2-ylamino)sulfonyl]benzamide]
- IC50 (hSCN3A sodium channels): 430 nM
- metabolism to the aniline containing sulfathiazole [1]: do not metabolize to form the aniline containing sulfathiazole

SMILES: O=C(NCCOc1ccc(Cl)cc1)c1ccc(S(=O)(=O)Nc2nccs2)cc1 [Example 186, N-[2-(4-chlorophenoxy)ethyl]-4-[(1,3-thiazol-2-ylamino)sulfonyl]benzamide]
- IC50 (hSCN3A sodium channels): 420 nM
- metabolism to the aniline containing sulfathiazole [1]: do not metabolize to form the aniline containing sulfathiazole

SMILES: N#Cc1cccc(CNC(=O)c2ccc(S(=O)(=O)Nc3nccs3)cc2)c1 [Example 180, N-(3-cyanobenzyl)-4-[(1,3-thiazol-2-ylamino)sulfonyl]benzamide]
- IC50 (hSCN3A sodium channels): > 1000 nM

SMILES: O=C(NCc1ccc(C(F)(F)F)cc1)c1ccc(S(=O)(=O)Nc2ncns2)cc1Cl [Example 377, 2-Chloro-4-[(1,2,4-thiadiazol-5-ylamino)sulfonyl]-N-[4-(trifluoromethyl)benzyl] benzamide]
- IC50 (hSCN3A sodium channels): 850 nM

SMILES: COc1ccccc1CNC(=O)c1ccc(S(=O)(=O)Nc2nccs2)cc1 [Example 174, N-(2-methoxybenzyl)-4-[(1,3-thiazol-2-ylamino)sulfonyl]benzamide]
- IC50 (hSCN3A sodium channels): 3970 nM

SMILES: O=C(NCc1ccc(F)c(OC(F)(F)F)c1)c1ccc(S(=O)(=O)Nc2nccs2)c(Cl)c1 [Example 293, 3-Chloro-N-[4-fluoro-3-(trifluoromethoxy)benzyl]-4-[(1,3-thiazol-2-yl-amino)sulfonyl]benzamide]
- IC50 (hSCN3A sodium channels): 2320 nM

SMILES: O=C(NCc1ccc(C(F)(F)F)c(Cl)c1)c1ccc(S(=O)(=O)Nc2ncns2)cc1 [Example 324, N-[3-chloro-4-(trifluoromethyl)benzyl]-4-[(1,2,4-thiadiazol-5-ylamino)sulfonyl]benzamide]
- IC50 (hSCN3A sodium channels): 30 nM

SMILES: O=C(NCc1ccc(F)cc1C(F)(F)F)c1ccc(S(=O)(=O)Nc2nccs2)cc1 [Example 80, N-[4-fluoro-2-(trifluoromethyl)benzyl]-4-[(1,3-thiazol-2-ylamino)sulfonyl]benzamide]
- IC50 (hSCN3A sodium channels): > 100 nM

SMILES: COc1ccc(CNC(=O)c2ccc(S(=O)(=O)Nc3nccs3)cc2)cc1C(F)(F)F [Example 412, N-[4-methoxy-3-(trifluoromethyl)benzyl]-4-[(1,3-thiazol-2-ylamino)sulfonyl] benzamide]
- IC50 (hSCN3A sodium channels): 270 nM

SMILES: O=C(NCc1ccc(Cl)c(F)c1)c1ccc(S(=O)(=O)Nc2ncc(Cl)s2)cc1 [Example 37, N-(4-Chloro-3-fluorobenzyl)-4-{[(5-chloro-1,3-thiazol-2-yl)amino]sulfonyl}benzamide]
- IC50 (hSCN3A sodium channels): 70 nM

SMILES: O=C(NCc1cc(C(F)(F)F)ccc1Cl)c1ccc(S(=O)(=O)Nc2nccs2)cc1 [Example 120, N-[2-chloro-5-(trifluoromethyl)benzyl]-4-[(1,3-thiazol-2-ylamino)sulfonyl]benzamide]
- IC50 (hSCN3A sodium channels): 500 nM

SMILES: CC(C)(NC(=O)c1ccc(S(=O)(=O)Nc2nccs2)cc1)c1ccc(C(F)(F)F)cc1 [Example 123, N-{1-methyl-1-[4-(trifluoromethyl)phenyl]ethyl}-4-[(1,3-thiazol-2-ylamino)sulfonyl]benzamide]
- IC50 (hSCN3A sodium channels): 1440 nM

SMILES: O=C(NCc1ccc(OC(F)(F)F)cc1)c1ccc(S(=O)(=O)Nc2nccs2)c(Cl)c1 [Example 284, 3-Chloro-4-[(1,3-thiazol-2-ylamino)sulfonyl]-N-[4-(trifluoromethoxy)benzyl]benzamide]
- IC50 (hSCN3A sodium channels): 1220 nM

SMILES: Cc1noc(NS(=O)(=O)c2ccc(C(=O)NCc3ccc(C(F)(F)F)cc3)cc2)c1C [Example 12, 4-{[(3,4-Dimethylisoxazol-5-yl)amino]sulfonyl}-N-[4-(trifluoromethyl)benzyl]benzamide]
- IC50 (hSCN3A sodium channels): 29600 nM

SMILES: CC(NC(=O)c1ccc(S(=O)(=O)Nc2ncc(Cl)s2)cc1)c1ccc(C(F)(F)F)cc1 (stereo not shown) [Example 44, 4-{[(5-Chloro-1,3-thiazol-2-yl)amino]sulfonyl}-N-{1-[4-(trifluoromethyl)phenyl]ethyl}benzamide]
- IC50 (hSCN3A sodium channels): 270 nM

SMILES: O=C(NCc1ccc(C(F)(F)F)cc1)c1ccc(S(=O)(=O)Nc2ncc(Cl)s2)cc1F [Example 352, 4-{[(5-Chloro-1,3-thiazol-2-yl)amino]sulfonyl}-2-fluoro-N-[4-(trifluoromethyl)benzyl]benzamide]
- IC50 (hSCN3A sodium channels): 200 nM

SMILES: Cc1ccccc1O[C@H]1CCN(C(=O)c2ccc(S(=O)(=O)Nc3nccs3)cc2)C1 [Example 198, 4-{[(3S)-3-(2-methylphenoxy)pyrrolidin-1-yl]carbonyl}-N-1,3-thiazol-2-yl-benzenesulfonamide]
- IC50 (hSCN3A sodium channels): 3030 nM

SMILES: CC(CNC(=O)c1ccc(S(=O)(=O)Nc2nccs2)cc1)Oc1ccccc1Cl (stereo not shown) [Example 147, N-[2-(2-chlorophenoxy)propyl]-4-[(1,3-thiazol-2-ylamino)sulfonyl]benzamide]
- IC50 (hSCN3A sodium channels): 2520 nM
